Laboratory results: ChEMBL document CHEMBL1150886, “Cytotoxic compounds from the roots of Juglans mandshurica” (J Nat Prod, 1998)
In brackets after ≈: the same amount, converted by molar mass.

How the values were obtained:
[1] = system: HT-29; assay: Cytotoxicity against human HT-29 cells by MTT assay; type: functional, cell-based
[2] = system: A549; assay: Cytotoxicity against human A549 cells by MTT assay; type: functional, cell-based

Structure (SMILES): COc1cc(C(=O)OC[C@H]2O[C@@H](Oc3ccc(O)c4c3C(O)CCC4=O)[C@H](O)[C@@H](O)[C@@H]2O)cc(OC)c1O (some centres undefined)
- IC50 [1]: > 50 µg/mL
- IC50 [2]: > 50 µg/mL

Structure (SMILES): COc1cc2ccc1Oc1cc(ccc1O)CC(O[C@@H]1O[C@H](CO)[C@@H](O)[C@H](O)[C@H]1O)C(=O)CCCC2 (some centres undefined)
- IC50 [1]: > 50 µg/mL
- IC50 [2]: > 50 µg/mL

Structure (SMILES): COC(=O)c1cc(O[C@H]2O[C@@H](CO)[C@H](O)[C@@H](O)[C@@H]2O)c2c(O)cccc2c1O
- IC50 [1]: 8.06 µg/mL (≈ 20.3 µM)
- IC50 [2]: 7.79 µg/mL (≈ 19.7 µM)

Structure (SMILES): COC1=CC(=O)c2c(O)cccc2C1=O
- IC50 [1]: 2.63 µg/mL (≈ 12.9 µM)
- IC50 [2]: 0.08 µg/mL (≈ 0.392 µM)

Structure (SMILES): COC(=O)C(O)(c1cc2c(c3oc([C@]4(C)C[C@@H]4C)cc(=O)c13)C(=O)c1c(ccc([C@H]3C[C@](C)(N(C)C)[C@H](O[C@@H]4C[C@H](OC)[C@H](O)[C@@H](C)O4)[C@H](C)O3)c1O)C2=O)[C@H]1O[C@H](C)[C@@H](O)[C@@H](OC)[C@@H]1O (some centres undefined) [ALTROMYCIN B]
- IC50 [1]: 3.98 µg/mL (≈ 4.31 µM)
